Converted amounts (≈) assume the structure as drawn.
What was measured:
P. aeruginosa ATCC 27853 = assay: microbe, parasite or virus in culture; type: cell-based; settings: Pseudomonas aeruginosa, ATCC27853, read-out: Minimum inhibitory concentration, P. aeruginosa ATCC 27853
[1] = system: N. gonorrhoeae ATCC 49226; assay: Liquid broth MIC in Fastidious broth; settings: Neisseria gonorrhoeae, ATCC49226, read-out: Minimum Inhibitory Concentration (MIC), N. gonorrhoeae ATCC 49226
N. gonorrhoeae WHO G = assay: Liquid broth MIC in Fastidious broth; settings: Neisseria gonorrhoeae, read-out: Minimum Inhibitory Concentration (MIC), N. gonorrhoeae WHO G
A. baumannii CDC-0083 = assay: microbe, parasite or virus in culture; type: cell-based; settings: Acinetobacter baumannii, CDC0083, read-out: MIC, A. baumannii CDC-0083
[2] = system: B. humptydooensis ATCC BAA-2767; assay: microbe, parasite or virus in culture; type: cell-based; settings: Burkholderia humptydooensis, ATCCBAA2767, read-out: Minimum inhibitory concentration (MIC), B. humptydooensis ATCC BAA-2767
P. aeruginosa CDC-0054 = assay: microbe, parasite or virus in culture; type: cell-based; settings: Pseudomonas aeruginosa, CDC0054, read-out: Minimum inhibitory concentration, P. aeruginosa CDC-0054
[3] = target: T1, PBP3 from Pseudomonas aeruginosa (PAO1) (Pseudomonas aeruginosa, UniProt G3XD46); assay: Bocillin-FL fluorescence polarization competition binding, P. aeruginosa PBP3; settings: Binding affinity to P. aeruginosa PBP3; fluorescence polarization competition binding assay using Bocillin-FL; read-out: P. aeruginosa PBP3 Potency
T1 construct: made in house
Method in brief: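 Purified PBPs pre-incubated with inhibitor (E. coli PBP3 1.5 μM, 30 min; P. aeruginosa PBP3 0.75 μM, A. baumannii PBP1a 1 μM and PBP3 0.2 μM, 15 min), then Bocillin-FL 0.1 μM (0.05 μM for PBP1a) added; FP read up to 60 min. EC50 = concentration halving bound Bocillin-FL.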

N. gonorrhoeae WHO X = assay: Liquid broth MIC in Fastidious broth; settings: Neisseria gonorrhoeae, read-out: Minimum Inhibitory Concentration (MIC), N. gonorrhoeae WHO X
A. baumannii CDC-0036 = assay: microbe, parasite or virus in culture; type: cell-based; settings: Acinetobacter baumannii, CDC0036, read-out: MIC, A. baumannii CDC-0036
P. aeruginosa CDC-0110 = assay: microbe, parasite or virus in culture; type: cell-based; settings: Pseudomonas aeruginosa, CDC0110, read-out: Minimum inhibitory concentration, P. aeruginosa CDC-0110
N. gonorrhoeae WHO M = assay: Liquid broth MIC in Fastidious broth; settings: Neisseria gonorrhoeae, read-out: Minimum Inhibitory Concentration (MIC), N. gonorrhoeae WHO M
N. gonorrhoeae FA1090 = assay: Liquid broth MIC in Fastidious broth; settings: Neisseria gonorrhoeae, FA1090, read-out: Minimum Inhibitory Concentration (MIC), N. gonorrhoeae FA 1090
P. aeruginosa CDC-0090 = assay: microbe, parasite or virus in culture; type: cell-based; settings: Pseudomonas aeruginosa, CDC0090, read-out: Minimum inhibitory concentration, P. aeruginosa CDC-0090

T1 sequence (G3XD46 whole entry): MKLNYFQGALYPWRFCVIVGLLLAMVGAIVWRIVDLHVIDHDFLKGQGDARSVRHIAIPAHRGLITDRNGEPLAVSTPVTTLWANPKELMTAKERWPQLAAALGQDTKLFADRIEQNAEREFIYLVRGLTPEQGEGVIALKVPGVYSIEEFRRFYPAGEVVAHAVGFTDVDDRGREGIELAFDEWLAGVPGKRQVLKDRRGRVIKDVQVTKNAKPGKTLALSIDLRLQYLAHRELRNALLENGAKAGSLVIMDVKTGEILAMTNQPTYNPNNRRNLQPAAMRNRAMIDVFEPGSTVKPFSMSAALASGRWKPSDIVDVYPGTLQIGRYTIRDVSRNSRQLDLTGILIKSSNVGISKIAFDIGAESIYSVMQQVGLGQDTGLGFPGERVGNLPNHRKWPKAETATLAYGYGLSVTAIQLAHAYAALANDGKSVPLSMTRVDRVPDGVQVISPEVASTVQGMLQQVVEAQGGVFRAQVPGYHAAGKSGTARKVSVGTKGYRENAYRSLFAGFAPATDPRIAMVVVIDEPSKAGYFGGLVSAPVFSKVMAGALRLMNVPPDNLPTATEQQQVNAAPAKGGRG

SMILES | MIC (P. aeruginosa ATCC 27853) | MIC [1] | MIC (N. gonorrhoeae WHO G) | MIC (A. baumannii CDC-0083) | MIC [2] | MIC (P. aeruginosa CDC-0054) | IC50 [3] | MIC (N. gonorrhoeae WHO X) | MIC (A. baumannii CDC-0036) | MIC (P. aeruginosa CDC-0110) | MIC (N. gonorrhoeae WHO M) | MIC (N. gonorrhoeae FA1090) | MIC (P. aeruginosa CDC-0090)
CN(CCN1CCN(C(=O)N[C@@H](C(=O)N[C@H]2Cc3ccc(F)c(C(=O)O)c3OB2O)c2cc(F)c(O)c(O)c2Cl)C(=O)C1=O)Cc1nccs1 [Example 200, (R)-3-((R)-2-(2-chloro-5-fluoro-3,4-dihydroxyphenyl)-2-(4-(2-(methyl(thiazol-2-ylmethyl)amino)ethyl)-2,3-dioxopiperazine-1-carboxamido)acetamido)-7-fluoro-2-hydroxy-3,4-dihydro-2H-benzo[e][1,2]oxaborinine-8-carboxylic acid] | < 1 µg/mL | 4 to 8 µg/mL (≈ 5.43 to 10.9 µM) | 4 to 8 µg/mL (≈ 5.43 to 10.9 µM) | < 1 µg/mL | < 1 µg/mL | < 1 µg/mL | < 10 µM | > 64 µg/mL | 2 to 4 µg/mL (≈ 2.71 to 5.43 µM) | < 1 µg/mL | 4 to 8 µg/mL (≈ 5.43 to 10.9 µM) | 1 to 2 µg/mL (≈ 1.36 to 2.71 µM) | < 1 µg/mL
CN(CCN1CCN(C(=O)N[C@@H](C(=O)N[C@H]2Cc3ccc(F)c(C(=O)O)c3OB2O)c2cc(F)c(O)c(O)c2Cl)C(=O)C1=O)Cc1cccnc1 [Example 201, (R)-3-((R)-2-(2-chloro-5-fluoro-3,4-dihydroxyphenyl)-2-(4-(2-(methyl(pyridin-3-ylmethyl)amino)ethyl)-2,3-dioxopiperazine-1-carboxamido)acetamido)-7-fluoro-2-hydroxy-3,4-dihydro-2H-benzo[e][1,2]oxaborinine-8-carboxylic acid] | < 1 µg/mL | 16 to 32 µg/mL (≈ 21.9 to 43.8 µM) | 4 to 8 µg/mL (≈ 5.47 to 10.9 µM) | < 1 µg/mL | < 1 µg/mL | < 1 µg/mL | < 10 µM | > 64 µg/mL | 2 to 4 µg/mL (≈ 2.74 to 5.47 µM) | < 1 µg/mL | 4 to 8 µg/mL (≈ 5.47 to 10.9 µM) | 1 to 2 µg/mL (≈ 1.37 to 2.74 µM) | < 1 µg/mL
O=C(NCCCN1CCN(C(=O)NC(C(=O)N[C@H]2Cc3ccc(F)c(C(=O)O)c3OB2O)c2cc(F)c(O)c(O)c2Cl)C(=O)C1=O)c1ccccc1 (stereo partly drawn) [Example 202, (3R)-3-(2-(4-(3-benzamidopropyl)-2,3-dioxopiperazine-1-carboxamido)-2-(2-chloro-5-fluoro-3,4-dihydroxyphenyl)acetamido)-7-fluoro-2-hydroxy-3,4-dihydro-2H-benzo[e][1,2]oxaborinine-8-carboxylic acid] | 2 to 4 µg/mL (≈ 2.69 to 5.38 µM) | 16 to 32 µg/mL (≈ 21.5 to 43 µM) | 16 to 32 µg/mL (≈ 21.5 to 43 µM) | < 1 µg/mL | < 1 µg/mL | < 1 µg/mL | < 10 µM | > 64 µg/mL | 2 to 4 µg/mL (≈ 2.69 to 5.38 µM) | < 1 µg/mL | 16 to 32 µg/mL (≈ 21.5 to 43 µM) | 4 to 8 µg/mL (≈ 5.38 to 10.8 µM) | 2 to 4 µg/mL (≈ 2.69 to 5.38 µM)
O=C(NCCCN1CCN(C(=O)NC(C(=O)N[C@H]2Cc3ccc(F)c(C(=O)O)c3OB2O)c2cc(F)c(O)c(O)c2Cl)C(=O)C1=O)c1ccc(O)cc1 (stereo partly drawn) [Example 203, (3R)-3-(2-(2-chloro-5-fluoro-3,4-dihydroxyphenyl)-2-(4-(3-(4-hydroxybenzamido)propyl)-2,3-dioxopiperazine-1-carboxamido)acetamido)-7-fluoro-2-hydroxy-3,4-dihydro-2H-benzo[e][1,2]oxaborinine-8-carboxylic acid] | < 1 µg/mL | 4 to 8 µg/mL (≈ 5.26 to 10.5 µM) | 4 to 8 µg/mL (≈ 5.26 to 10.5 µM) | < 1 µg/mL | < 1 µg/mL | < 1 µg/mL | < 10 µM | > 64 µg/mL | < 1 µg/mL | < 1 µg/mL | 4 to 8 µg/mL (≈ 5.26 to 10.5 µM) | < 1 µg/mL | < 1 µg/mL
O=C(NCCCN1CCN(C(=O)NC(C(=O)N[C@H]2Cc3ccc(F)c(C(=O)O)c3OB2O)c2cc(F)c(O)c(O)c2Cl)C(=O)C1=O)c1cccc(O)c1 (stereo partly drawn) [Example 204, (3R)-3-(2-(2-chloro-5-fluoro-3,4-dihydroxyphenyl)-2-(4-(3-(3-hydroxybenzamido)propyl)-2,3-dioxopiperazine-1-carboxamido)acetamido)-7-fluoro-2-hydroxy-3,4-dihydro-2H-benzo[e][1,2]oxaborinine-8-carboxylic acid] | < 1 µg/mL | 16 to 32 µg/mL (≈ 21.1 to 42.1 µM) | 4 to 8 µg/mL (≈ 5.26 to 10.5 µM) | < 1 µg/mL | < 1 µg/mL | < 1 µg/mL | < 10 µM | > 64 µg/mL | 2 to 4 µg/mL (≈ 2.63 to 5.26 µM) | < 1 µg/mL | 4 to 8 µg/mL (≈ 5.26 to 10.5 µM) | 1 to 2 µg/mL (≈ 1.32 to 2.63 µM) | < 1 µg/mL
O=C(NCCCN1CCN(C(=O)NC(C(=O)N[C@H]2Cc3ccc(F)c(C(=O)O)c3OB2O)c2cc(F)c(O)c(O)c2Cl)C(=O)C1=O)c1ccncc1 (stereo partly drawn) [Example 205, (3R)-3-(2-(2-chloro-5-fluoro-3,4-dihydroxyphenyl)-2-(4-(3-(isonicotinamido)propyl)-2,3-dioxopiperazine-1-carboxamido)acetamido)-7-fluoro-2-hydroxy-3,4-dihydro-2H-benzo[e][1,2]oxaborinine-8-carboxylic acid] | < 1 µg/mL | 16 to 32 µg/mL (≈ 21.5 to 43 µM) | 4 to 8 µg/mL (≈ 5.37 to 10.7 µM) | < 1 µg/mL | < 1 µg/mL | < 1 µg/mL | < 10 µM | > 64 µg/mL | < 1 µg/mL | < 1 µg/mL | 4 to 8 µg/mL (≈ 5.37 to 10.7 µM) | 1 to 2 µg/mL (≈ 1.34 to 2.69 µM) | < 1 µg/mL
O=C(NCCCN1CCN(C(=O)NC(C(=O)N[C@H]2Cc3ccc(F)c(C(=O)O)c3OB2O)c2cc(F)c(O)c(O)c2Cl)C(=O)C1=O)Nc1cccc(O)c1 (stereo partly drawn) [Example 206, (3R)-3-(2-(2-chloro-5-fluoro-3,4-dihydroxyphenyl)-2-(4-(3-(3-(3-hydroxyphenyl)ureido)propyl)-2,3-dioxopiperazine-1-carboxamido)acetamido)-7-fluoro-2-hydroxy-3,4-dihydro-2H-benzo[e][1,2]oxaborinine-8-carboxylic acid] | 2 to 4 µg/mL (≈ 2.58 to 5.16 µM) | 16 to 32 µg/mL (≈ 20.6 to 41.3 µM) | 4 to 8 µg/mL (≈ 5.16 to 10.3 µM) | < 1 µg/mL | < 1 µg/mL | < 1 µg/mL | < 10 µM | > 64 µg/mL | < 1 µg/mL | < 1 µg/mL | 4 to 8 µg/mL (≈ 5.16 to 10.3 µM) | 1 to 2 µg/mL (≈ 1.29 to 2.58 µM) | < 1 µg/mL
O=C(O)c1c(F)ccc2c1OB(O)[C@@H](NC(=O)C(NC(=O)N1CCN(CCCNC(=O)[C@@H]3CCCN3)C(=O)C1=O)c1cc(F)c(O)c(O)c1Cl)C2 (stereo partly drawn) [Example 212, (3R)-3-(2-(2-chloro-5-fluoro-3,4-dihydroxyphenyl)-2-(2,3-dioxo-4-(3-((S)-pyrrolidine-2-carboxamido)propyl)piperazine-1-carboxamido)acetamido)-7-fluoro-2-hydroxy-3,4-dihydro-2H-benzo[e][1,2]oxaborinine-8-carboxylic acid] | 2 to 4 µg/mL (≈ 2.71 to 5.43 µM) | 16 to 32 µg/mL (≈ 21.7 to 43.4 µM) | 16 to 32 µg/mL (≈ 21.7 to 43.4 µM) | 32 to 64 µg/mL (≈ 43.4 to 86.9 µM) | < 1 µg/mL | 8 to 16 µg/mL (≈ 10.9 to 21.7 µM) | – | > 64 µg/mL | 8 to 16 µg/mL (≈ 10.9 to 21.7 µM) | < 1 µg/mL | 16 to 32 µg/mL (≈ 21.7 to 43.4 µM) | 4 to 8 µg/mL (≈ 5.43 to 10.9 µM) | < 1 µg/mL
O=C(NCCCN1CCN(C(=O)NC(C(=O)N[C@H]2Cc3ccc(F)c(C(=O)O)c3OB2O)c2cc(F)c(O)c(O)c2Cl)C(=O)C1=O)Nc1cccnc1 (stereo partly drawn) [Example 213, (3R)-3-(2-(2-chloro-5-fluoro-3,4-dihydroxyphenyl)-2-(2,3-dioxo-4-(3-(3-(pyridin-3-yl)ureido)propyl)piperazine-1-carboxamido)acetamido)-7-fluoro-2-hydroxy-3,4-dihydro-2H-benzo[e][1,2]oxaborinine-8-carboxylic acid] | 2 to 4 µg/mL (≈ 2.63 to 5.26 µM) | 16 to 32 µg/mL (≈ 21.1 to 42.1 µM) | 16 to 32 µg/mL (≈ 21.1 to 42.1 µM) | 8 to 16 µg/mL (≈ 10.5 to 21.1 µM) | < 1 µg/mL | 2 to 4 µg/mL (≈ 2.63 to 5.26 µM) | – | > 64 µg/mL | 2 to 4 µg/mL (≈ 2.63 to 5.26 µM) | < 1 µg/mL | 16 to 32 µg/mL (≈ 21.1 to 42.1 µM) | 1 to 2 µg/mL (≈ 1.32 to 2.63 µM) | 2 to 4 µg/mL (≈ 2.63 to 5.26 µM)
